Measured values published in BindingDB's records for doi:10.1016/j.bmcl.2009.10.049 (Wyeth Research, 2009).

Target: 3-phosphoinositide-dependent protein kinase 1 (Homo sapiens) (UniProt O15530)
Assay: Inhibition of PDK1

IC50: > 2000 nM
Structure (SMILES): CN(C)Cc1ccc(-c2cnn3c(-c4cccc(NC(=O)c5cccc(C(F)(F)F)c5)c4)ccnc23)cc1 [N-[3-(3-{4-[(dimethylamino)methyl]phenyl}pyrazolo[1,5-a]pyrimidin-7-yl)phenyl]-3-(trifluoromethyl)benzamide]
